The values below come from US12391737B2, “Soluble NPY2 receptor agonists” (Boehringer Ingelheim International GmbH, priority 2020, dated 2025).

Data set [1] has as its target T1, Human Neuropeptide Y2 Receptor (Homo sapiens, UniProt P49146).
T1 construct: purchased CHEMICON HTS066M
T1 sequence (P49146 1-381): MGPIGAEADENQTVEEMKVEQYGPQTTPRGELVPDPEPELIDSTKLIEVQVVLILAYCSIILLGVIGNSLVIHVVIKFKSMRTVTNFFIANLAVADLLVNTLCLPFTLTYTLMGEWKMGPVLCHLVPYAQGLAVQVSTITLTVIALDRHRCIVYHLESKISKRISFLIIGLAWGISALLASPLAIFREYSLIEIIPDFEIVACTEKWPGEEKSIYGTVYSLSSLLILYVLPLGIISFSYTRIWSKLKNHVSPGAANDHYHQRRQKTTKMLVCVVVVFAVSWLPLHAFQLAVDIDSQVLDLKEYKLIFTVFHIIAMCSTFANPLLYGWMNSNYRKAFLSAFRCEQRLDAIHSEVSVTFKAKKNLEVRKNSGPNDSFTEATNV
The data set is described as follows: Radioligand binding competition assay (RLB). The conditions noted are these: Table 3, 125I-PYY(1-36) competition; read-out: Ki. In short, it runs like this: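 Displacement of radioligand is measured after 2 h at room temperature with receptor membranes in Mg2+/Ca2+ HEPES buffer, pH 7.4. Filter-bound radioactivity is counted and IC50 obtained from curve fitting.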

Data set [2] in a line: Solubility determination. The conditions noted are these: for Sol6: pH 6; for Sol7: pH 7. In short, it runs like this:
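Shake-flask style: 10 mg/ml peptide (TFA salt), 0.1 M sodium diphosphate pH 6.4/7.0, 600 rpm, 2 h, RT; filter; dilute 1 mg/ml in 50% MeCN; RP-UPLC, 0–100% B over 2 min, 50 °C. Solubility = sample/control area ratio. Final pH recorded.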

For the compound `CC(C)CC(=O)N[C@@H](C)C(=O)N1CCC[C@H]1C(=O)N[C@@H](C)C(=O)N[C@@H](CCCCNC(=O)CCCCCNC(=O)CC[C@H](NC(=O)CCCCCCCCCCCCCCCCC(=O)O)C(=O)O)C(=O)N1CCC[C@H]1C(=O)N[C@@H](CCC(=O)O)C(=O)N[C@@H](CCC(=O)O)C(=O)N[C@@H](CC(=O)O)C(=O)N[C@@H](C)C(=O)N[C@H](C(=O)N1CCC[C@H]1C(=O)N[C@@H](CCC(=O)O)C(=O)N[C@@H](CCC(=O)O)C(=O)N[C@@H](C)C(=O)N[C@@H](CCC(N)=O)C(=O)N[C@@H](CCCNC(=N)N)C(=O)N[C@@H](Cc1ccc(O)cc1)C(=O)N[C@@H](Cc1ccc(O)cc1)C(=O)N[C@H](C(=O)N[C@@H](CO)C(=O)N[C@@H](CC(C)C)C(=O)N[C@@H](CCCNC(=N)N)C(=O)N[C@@H](Cc1c[nH]cn1)C(=O)N[C@@H](Cc1ccc(O)cc1)C(=O)N[C@@H](Cc1ccc(O)cc1)C(=O)N[C@@H](CC(N)=O)C(=O)N[C@@H](Cc1c[nH]c2ccccc12)C(=O)N[C@@H](CC(C)C)C(=O)N[C@H](C(=O)N[C@@H](CCCNC(=N)N)C(=O)N[C@@H](CCC(N)=O)C(=O)N[C@@H](CCCNC(=N)N)C(=O)N[C@@H](Cc1ccc(O)cc1)C(N)=O)[C@@H](C)O)C(C)C)[C@@H](C)O` [Compound 57, N{alpha-4}-(3-methylbutanoyl)-N{epsilon-7}-(6-[(4S)-4-carboxy-4-(17-carboxyheptadecanamido)butanamido]hexanoyl)-[4A,6A,7K,9E,13T,17A,18Q,22V,28Y,30W,31L]-hPYY(4-36)], the Ki – broadly, the equilibrium dissociation constant of an inhibitor or competing ligand from its target – in data set [1] was 2.07 nM. In data set [2], the “Sol6” value came to 8.3 mg/mL and the “Sol7” value was 9.6 mg/mL.
The corresponding values for `CC[C@H](C)[C@H](NC(=O)[C@H](CCC(=O)O)NC(=O)[C@H](CCC(=O)O)NC(=O)[C@@H]1CCCN1C(=O)[C@H](CCC(=O)O)NC(=O)[C@H](C)NC(=O)[C@H](CC(=O)O)NC(=O)[C@H](C)NC(=O)[C@H](CCC(=O)O)NC(=O)[C@@H]1CCCN1C(=O)[C@H](CCCCNC(=O)CCCCCNC(=O)CC[C@H](NC(=O)CCCCCCCCCCCCCCCCC(=O)O)C(=O)O)NC(=O)[C@H](C)NC(=O)[C@@H]1CCCN1C(=O)[C@H](C)NC(=O)CC(C)C)C(=O)N[C@@H](CCC(N)=O)C(=O)N[C@@H](CCCNC(=N)N)C(=O)N[C@@H](Cc1ccc(O)cc1)C(=O)N[C@@H](Cc1ccc(O)cc1)C(=O)N[C@H](C(=O)N[C@@H](CO)C(=O)N[C@@H](CC(C)C)C(=O)N[C@@H](CCCNC(=N)N)C(=O)N[C@@H](Cc1c[nH]cn1)C(=O)N[C@@H](Cc1ccc(O)cc1)C(=O)N[C@@H](Cc1ccc(O)cc1)C(=O)N[C@@H](CC(N)=O)C(=O)N[C@@H](Cc1c[nH]c2ccccc12)C(=O)N[C@@H](CC(C)C)C(=O)N[C@H](C(=O)N[C@@H](CCCNC(=N)N)C(=O)N[C@@H](CCC(N)=O)C(=O)N[C@@H](CCCNC(=N)N)C(=O)N[C@@H](Cc1ccc(O)cc1)C(N)=O)[C@@H](C)O)C(C)C` [Compound 198, N{alpha-4}-(3-methylbutanoyl)-N{epsilon-7}-(6-[(4S)-4-carboxy-4-(17-carboxyheptadecanamido)butanamido]hexanoyl)-[4A,6A,7K,9E,10A,13E,17I,18Q,22V,28Y,30W,31L]-hPYY(4-36)] are 1.38 nM, >10.0 mg/mL and >10.0 mg/mL.
The corresponding values for `CC(C)CC(=O)N[C@@H](C)C(=O)N1CCC[C@H]1C(=O)N[C@@H](CCC(=O)O)C(=O)N[C@@H](CCCCNC(=O)CCCCCNC(=O)CC[C@H](NC(=O)CCCCCCCCCCCCCCCCC(=O)O)C(=O)O)C(=O)N1CCC[C@H]1C(=O)N[C@@H](CCC(=O)O)C(=O)N[C@@H](C)C(=O)N[C@@H](CC(=O)O)C(=O)N[C@@H](C)C(=O)N[C@H](C(=O)N1CCC[C@H]1C(=O)N[C@@H](CCC(=O)O)C(=O)N[C@@H](CCC(=O)O)C(=O)N[C@@H](CC(C)C)C(=O)N[C@@H](CCC(N)=O)C(=O)N[C@@H](CCCNC(=N)N)C(=O)N[C@@H](Cc1ccc(O)cc1)C(=O)N[C@@H](Cc1ccc(O)cc1)C(=O)N[C@H](C(=O)N[C@@H](CO)C(=O)N[C@@H](CC(C)C)C(=O)N[C@@H](CCCNC(=N)N)C(=O)N[C@@H](Cc1c[nH]cn1)C(=O)N[C@@H](Cc1ccc(O)cc1)C(=O)N[C@@H](Cc1ccc(O)cc1)C(=O)N[C@@H](CC(N)=O)C(=O)N[C@@H](Cc1c[nH]c2ccccc12)C(=O)N[C@@H](CC(C)C)C(=O)N[C@H](C(=O)N[C@@H](CCCNC(=N)N)C(=O)N[C@@H](CCC(N)=O)C(=O)N[C@@H](CCCNC(=N)N)C(=O)N[C@@H](Cc1ccc(O)cc1)C(N)=O)[C@@H](C)O)C(C)C)[C@@H](C)O` [Compound 132, N{alpha-4}-(3-methylbutanoyl)-N{epsilon-7}-(6-[(4S)-4-carboxy-4-(17-carboxyheptadecanamido)butanamido]hexanoyl)-[4A,7K,9E,10A,13T,18Q,22V,28Y,30W,31L]-hPYY(4-36)] are 2.75 nM, 8.7 mg/mL and 9.3 mg/mL.
The corresponding values for `CC(C)CC(=O)N[C@@H](C)C(=O)N1CCC[C@H]1C(=O)N[C@@H](C)C(=O)N[C@@H](CCCCNC(=O)CCCCCNC(=O)CC[C@H](NC(=O)CCCCCCCCCCCCCCCCC(=O)O)C(=O)O)C(=O)N1CCC[C@H]1C(=O)N[C@@H](CCC(=O)O)C(=O)N[C@@H](C)C(=O)N[C@@H](CC(=O)O)C(=O)N[C@@H](C)C(=O)N[C@@H](CCC(=O)O)C(=O)N1CCC[C@H]1C(=O)N[C@@H](CCC(=O)O)C(=O)N[C@@H](CCC(=O)O)C(=O)N[C@@H](CC(C)C)C(=O)N[C@@H](CCC(N)=O)C(=O)N[C@@H](CCCNC(=N)N)C(=O)N[C@@H](Cc1ccc(O)cc1)C(=O)N[C@@H](Cc1ccc(O)cc1)C(=O)N[C@H](C(=O)N[C@@H](C)C(=O)N[C@@H](CC(C)C)C(=O)N[C@@H](CCCNC(=N)N)C(=O)N[C@@H](Cc1c[nH]cn1)C(=O)N[C@@H](Cc1ccc(O)cc1)C(=O)N[C@@H](Cc1ccc(O)cc1)C(=O)N[C@@H](CC(N)=O)C(=O)N[C@@H](Cc1c[nH]c2ccccc12)C(=O)N[C@@H](CC(C)C)C(=O)N[C@H](C(=O)N[C@@H](CCCNC(=N)N)C(=O)N[C@@H](CCC(N)=O)C(=O)N[C@@H](CCCNC(=N)N)C(=O)N[C@@H](Cc1ccc(O)cc1)C(N)=O)[C@@H](C)O)C(C)C` [Compound 3, N{alpha-4}-(3-methylbutanoyl)-N{epsilon-7}-(6-[(4S)-4-carboxy-4-(17-carboxyheptadecanamido)butanamido]hexanoyl)[4A,6A,7K,9E,10A,13E,18Q,22V,23A,28Y,30W,31L]-hPYY(4-36)] are 1.57 nM, 10.0 mg/mL and 10.0 mg/mL.
For the compound `CC(C)CC(=O)N[C@@H](C)C(=O)N1CCC[C@H]1C(=O)N[C@@H](CCC(=O)O)C(=O)N[C@@H](CCCCNC(=O)CCCCCNC(=O)CC[C@H](NC(=O)CCCCCCCCCCCCCCCCC(=O)O)C(=O)O)C(=O)N1CCC[C@H]1C(=O)N[C@@H](CCC(=O)O)C(=O)N[C@@H](CCC(=O)O)C(=O)N[C@@H](CC(=O)O)C(=O)N[C@@H](C)C(=O)N[C@H](C(=O)N1CCC[C@H]1C(=O)N[C@@H](CCC(=O)O)C(=O)N[C@@H](CCC(=O)O)C(=O)N[C@@H](CC(C)C)C(=O)N[C@@H](CCC(N)=O)C(=O)N[C@@H](CCC(=O)O)C(=O)N[C@@H](Cc1ccc(O)cc1)C(=O)N[C@@H](Cc1ccc(O)cc1)C(=O)N[C@H](C(=O)N[C@@H](CO)C(=O)N[C@@H](CC(C)C)C(=O)N[C@@H](CCCNC(=N)N)C(=O)N[C@@H](Cc1c[nH]cn1)C(=O)N[C@@H](Cc1ccc(O)cc1)C(=O)N[C@@H](Cc1ccc(O)cc1)C(=O)N[C@@H](CC(N)=O)C(=O)N[C@@H](Cc1c[nH]c2ccccc12)C(=O)N[C@@H](CC(C)C)C(=O)N[C@H](C(=O)N[C@@H](CCCNC(=N)N)C(=O)N[C@@H](CCC(N)=O)C(=O)N[C@@H](CCCNC(=N)N)C(=O)N[C@@H](Cc1ccc(O)cc1)C(N)=O)[C@@H](C)O)C(C)C)[C@@H](C)O` [Compound 38, N{alpha-4}-(3-methylbutanoyl)-N{epsilon-7}-(6-[(4S)-4-carboxy-4-(17-carboxyheptadecanamido)butanamido]hexanoyl)[4A,7K,9E,13T,18Q,19E,22V,28Y,30W,31L]-hPYY(4-36)], in data set [1], the Ki stood at 12.4 nM. Also, in data set [2], the “Sol6” value is 10.0 mg/mL and the “Sol7” value is 10.0 mg/mL.
